Common to all, as to format: cell-based
In assay [1] the test system is Pseudomonas aeruginosa #28. Put plainly: Minimal Inhibitory Concentration, Pseudomonas aeruginosa #28.
A further assay concerns Entero. cloacae. Put plainly: Minimal Inhibitory Concentration, Entero. cloacae. The conditions noted are these: Enterobacter cloacae.
In a further assay the test system is Serr. marces. Put plainly: Minimal Inhibitory Concentration, Serr. marces.
For the next assay, the system named is Klebs. pneu. Nature of the assay: Minimal Inhibitory Concentration, Klebs. pneu.
The next assay deals with Staph. aureus S18713. Put plainly: Minimal Inhibitory Concentration, Staph. aureus S18713. The conditions noted are these: Staphylococcus aureus.

In brackets after ≈: the same amount, converted by molar mass. A value given as a limit tells only on which side of the number the result lay.

Turning to `CC1(C)S[C@@H]2[C@H](NC(=O)[C@H](NC(=O)c3ccc(-c4ccc(NS(=O)(=O)CCc5ccncc5)cc4)[nH]c3=O)c3ccccc3)C(=O)N2[C@H]1C(=O)O` [Example 8], the MIC worked out at 6.3 µg/mL (≈ 8.62 µM) in assay [1]; 6.3 µg/mL (≈ 8.62 µM) in the assay with Entero. cloacae; 100 µg/mL (≈ 137 µM) against Serr. marces.; 3.1 µg/mL (≈ 4.24 µM) against Klebs. pneu.; 100 µg/mL (≈ 137 µM) against Staph. aureus S18713.

For the compound `CC1(C)S[C@@H]2[C@H](NC(=O)[C@H](NC(=O)c3ccc(-c4ccc(NS(=O)(=O)c5cccnc5)cc4)[nH]c3=O)c3ccccc3)C(=O)N2[C@H]1C(=O)O` [Example 9, N-[6-[4-(3-pyridinylsulfonylamino)phenyl]-1,2-dihydro-2-oxonicotinoyl]ampicillin], the MIC was 12.5 µg/mL (≈ 17.8 µM) in assay [1]; 12.5 µg/mL (≈ 17.8 µM) with Entero. cloacae; 100 µg/mL (≈ 142 µM) against Serr. marces.; 6.3 µg/mL (≈ 8.96 µM) in the assay on Klebs. pneu.; 100 µg/mL (≈ 142 µM) in the assay on Staph. aureus S18713.

Consider `CC1(C)S[C@@H]2[C@H](NC(=O)[C@H](NC(=O)c3ccc(-c4cccc(NS(=O)(=O)c5cccnc5)c4)[nH]c3=O)c3ccccc3)C(=O)N2[C@H]1C(=O)O` [Example 10, N-[6-[3-(3-pyridinylsulfonylamino)phenyl]-1,2-dihydro-2-oxonicotinoyl]ampicillin], for which the MIC is 12.5 µg/mL (≈ 17.8 µM) in assay [1]; 12.5 µg/mL (≈ 17.8 µM) in the assay with Entero. cloacae; 100 µg/mL (≈ 142 µM) against Serr. marces.; 6.3 µg/mL (≈ 8.96 µM) in the assay with Klebs. pneu.; over 200 µg/mL in the assay with Staph. aureus S18713.

Consider `CC1(C)S[C@@H]2[C@H](NC(=O)[C@H](NC(=O)c3ccc(-c4ccc(NS(C)(=O)=O)cc4)[nH]c3=O)c3ccc(O)cc3)C(=O)N2[C@H]1C(=O)O` [Example 3], for which the MIC in assay [1] is 1.6 µg/mL (≈ 2.44 µM); against Entero. cloacae, 3.1 µg/mL (≈ 4.73 µM); with Serr. marces., 100 µg/mL (≈ 153 µM); with Klebs. pneu. it was 3.1 µg/mL (≈ 4.73 µM); against Staph. aureus S18713 it was 100 µg/mL (≈ 153 µM).

Consider `CC1(C)S[C@@H]2[C@H](NC(=O)[C@H](NC(=O)c3ccc(-c4ccc(NS(=O)(=O)C(F)(F)F)cc4)[nH]c3=O)c3ccccc3)C(=O)N2[C@H]1C(=O)O` [Example 5, N-[6-[4-(Trifluoromethylsulfonylamino)phenyl]-1,2-dihydro-2-oxonicotinoyl]ampicillin], for which the MIC in assay [1] was determined as 6.3 µg/mL (≈ 9.08 µM); in the assay with Entero. cloacae, 6.3 µg/mL (≈ 9.08 µM); against Serr. marces., 200 µg/mL (≈ 288 µM); with Klebs. pneu., 3.1 µg/mL (≈ 4.47 µM); with Staph. aureus S18713 it was 200 µg/mL (≈ 288 µM).

Take `CC(=O)OCCCS(=O)(=O)Nc1ccc(-c2ccc(C(=O)N[C@@H](C(=O)N[C@@H]3C(=O)N4[C@@H]3SC(C)(C)[C@@H]4C(=O)O)c3ccccc3)c(=O)[nH]2)cc1` [Example 7, N-[6-[4-[3-(acetyloxy)propylsulfonylamino]phenyl]-1,2-dihydro-2-oxonicotinoyl]ampicillin]: the MIC in assay [1] came out at 6.3 µg/mL (≈ 8.68 µM); in the assay on Entero. cloacae, 6.3 µg/mL (≈ 8.68 µM); in the assay on Serr. marces., 100 µg/mL (≈ 138 µM); against Klebs. pneu., 3.1 µg/mL (≈ 4.27 µM); in the assay on Staph. aureus S18713 it was 100 µg/mL (≈ 138 µM).

In the case of `CC1(C)S[C@@H]2[C@H](NC(=O)[C@H](NC(=O)c3ccc(-c4ccc(NS(=O)(=O)C(F)(F)F)cc4)[nH]c3=O)c3ccc(O)cc3)C(=O)N2[C@H]1C(=O)O` [Example 6, N[6-[4-(Trifluoromethylsulfonylamino)phenyl]-1,2-dihydro-2-oxonicotinoyl]amoxicillin], the MIC in assay [1] amounted to 12.5 µg/mL (≈ 17.6 µM); against Entero. cloacae, 6.3 µg/mL (≈ 8.88 µM); against Serr. marces. it was 50 µg/mL (≈ 70.5 µM); against Klebs. pneu., 25 µg/mL (≈ 35.2 µM); with Staph. aureus S18713, 25 µg/mL (≈ 35.2 µM).

`CC1(C)S[C@@H]2[C@H](NC(=O)[C@H](NC(=O)c3ccc(-c4ccc(NS(C)(=O)=O)cc4)[nH]c3=O)c3ccccc3)C(=O)N2[C@H]1C(=O)O` [Example 2, N-[6-[4-(Methylsulfonylamino)phenyl]-1,2-dihydro-2-oxonicotinoyl]ampicillin]: the MIC in assay [1] is 3.1 µg/mL (≈ 4.85 µM); against Entero. cloacae, 6.3 µg/mL (≈ 9.85 µM); in the assay with Serr. marces. it was 50 µg/mL (≈ 78.2 µM); against Klebs. pneu., 3.1 µg/mL (≈ 4.85 µM); against Staph. aureus S18713, 100 µg/mL (≈ 156 µM).

In the case of `CCCS(=O)(=O)Nc1ccc(-c2ccc(C(=O)N[C@@H](C(=O)N[C@@H]3C(=O)N4[C@@H]3SC(C)(C)[C@@H]4C(=O)O)c3ccccc3)c(=O)[nH]2)cc1` [Example 4, N-[6-[4-(Propylsulfonylamino)phenyl]-1,2-dihydro-2-oxonictinoyl]ampicillin], the minimum inhibitory concentration (MIC) amounted to 3.1 µg/mL (≈ 4.64 µM) in assay [1]; 6.3 µg/mL (≈ 9.43 µM) against Entero. cloacae; 50 µg/mL (≈ 74.9 µM) in the assay on Serr. marces.; 3.1 µg/mL (≈ 4.64 µM) against Klebs. pneu.; 100 µg/mL (≈ 150 µM) in the assay on Staph. aureus S18713.

In the case of `CC1(C)S[C@@H]2[C@H](NC(=O)[C@H](NC(=O)c3ccc(-c4cccc(NS(C)(=O)=O)c4)[nH]c3=O)c3ccccc3)C(=O)N2[C@H]1C(=O)O` [Example 1, N-[6-[3-(Methylsulfonylamino)phenyl]-1,2-dihydro-2-oxonicotinoyl]ampicillin], the minimum inhibitory concentration (MIC) is 12.5 µg/mL (≈ 19.5 µM) in assay [1]; 6.3 µg/mL (≈ 9.85 µM) against Entero. cloacae; 25 µg/mL (≈ 39.1 µM) with Serr. marces.; 1.6 µg/mL (≈ 2.5 µM) against Klebs. pneu.; over 200 µg/mL with Staph. aureus S18713.

Values taken from US4315014A, “Antibacterial amide compounds and pharmaceutical composition containing the same” (Warner-Lambert Company, priority 1980, dated 1982).
